Key:
human GLP-1R receptor = target: T1, human GLP-1R receptor (Homo sapiens, UniProt P43220, L260F); assay: CHOK1 GLP-1R cAMP Assay (HTRF); format: cell-based; conditions: CHO-K1 cells stably expressing human GLP-1R (Leu260Phe variant), 20 min at rt
T1 construct: expressed in transfected cells; host or cells: CHO-K1 (ATCC CCL-61)
Method: A cell line stably expressing the human GLP-1R receptor (NM_002062.5, including the naturally-occurring variant Leu260Phe) in a CHO-K1 (ATCC® CCL-61™) was used for assay.
GLP-1 receptor mediated agonist activity was determined in a cell-based assay measuring cyclic adenosine monophosphate (cAMP) levels in cells using Homogeneous Time-Resolved Fluorescence (HTRF) cAMP detection kit (CisBio catalog #62AM4PEC, cAMP Gs Dynamic range kit). The cAMP detection method is based on a competitive immunoassay, in which cAMP produced by the cells and cAMP labeled with the dye d2 compete for binding to a Europium-Cryptate-labeled anti-cAMP antibody. The specific HTRF signal is inversely proportional to the concentration of cAMP.
Compounds were added to individual well in 384 well-assay plates (Greiner #784076) using an Echo (LabCyte) dispenser from 10 mM stocks. Varying concentration of compounds were added to wells, and DMSO was used to normalize each well to a volume of 100 nL. A dose response curve of GLP-1(7-36)NH2 (Bachem H-6795) was included in each run. 5 μL of cAMP concentration response standards are applied in specified wells in the assay plates. Cryo-preserved cells are thawed and resuspended in assay buffer pre-heated to 37° C. (20 mM 2-[4-(2-hydroxyethyl)piperazin-1-yl]ethanesulfonic acid (HEPES) pH 7.4, 1× Hank's Balanced Salt Solution (HBSS, Life Technologies #14065) supplemented with 0.1% (w/v) bovine serum albumin (Sigma, A-7030)). Cells were centrifuged at 250*g for 5 min at rt, and resuspended in room tempered assay buffer to a final density of 0.16*10^6 cell/mL, to deliver 800 cells/well. 5 μL of assay buffer with 1 mM 3-isobutyl-1-methylxanthin (IBMX; Sigma cat I-7018) was dispensed per well in assay plates using a multidrop combi (Thermo Scientific) subsequently 5 μL of cell suspension was distributed to relevant wells in the assay using a multidrop dispenser. Assay plates were incubated 20 min at rt.
Detection reagents, Europium-Cryptate-labeled anti-cAMP antibody and cAMP labeled with the dye d2, are diluted in lysis buffer, provided by the manufacturer. 5 μL of each detection reagent is supplemented to each assay well using a multidrop dispenser. Assay plates are incubated in the dark for at least one h. The HTRF signal is measured using the HTRF module (excitation: 337 nm, emission A: 665 nm and emission B: 620 nm) in Pherastar FSX (BMG Labtech).
Raw data were converted to pM cAMP using the cAMP standard curve included in each run. Converted data were further analyzed in Genedata Screener (Genedata) and EC50 determinations were made from agonist dose-response curves analyzed with a curve fitting is program using a 4-parameter logistic dose response equation (Equation y=A+((B-A)/1+((C/x)^D))) where A is no stimulation, B is full stimulation, C is the EC50 and D is the Hill slope). The percent effect was determined relative to a saturating concentration of a full GLP-1R agonist (GLP-1(7-36)NH2 has 100% effect in this assay setup).

[1] = target: T2, GLP-1R in a pancreatic insulinoma cell line (EndoC-PH1) (Homo sapiens, UniProt P43220); assay: EndoC cAMP Accumulation Assay (HTRF); format: cell-based; conditions: EndoC-PH1 human pancreatic beta cell line, endogenous GLP-1R, 30 min at rt
T2 construct: host or cells: EndoC-βH1 human pancreatic beta cell line
T2 sequence (P43220 24-463): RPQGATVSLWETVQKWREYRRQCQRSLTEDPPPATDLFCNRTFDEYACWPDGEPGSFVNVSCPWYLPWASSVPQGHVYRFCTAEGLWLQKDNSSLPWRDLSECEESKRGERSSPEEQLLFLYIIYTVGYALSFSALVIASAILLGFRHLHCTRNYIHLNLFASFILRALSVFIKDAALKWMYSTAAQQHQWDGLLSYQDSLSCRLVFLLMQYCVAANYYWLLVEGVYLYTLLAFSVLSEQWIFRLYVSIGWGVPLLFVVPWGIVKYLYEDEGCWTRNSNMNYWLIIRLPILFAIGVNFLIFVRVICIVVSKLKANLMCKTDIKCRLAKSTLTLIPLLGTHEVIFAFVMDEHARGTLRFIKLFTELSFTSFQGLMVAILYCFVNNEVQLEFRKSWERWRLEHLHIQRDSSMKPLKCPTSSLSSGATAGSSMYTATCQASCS
From the text: EndoC cAMP Accumulation Assay
A HTRF cAMP assay (cAMP Gs dynamic kit; CisoBio Cat #62AM4PEJ) was used to identify agonists of GLP-1R in a pancreatic insulinoma cell line (EndoC-PH1). […] EndoC-PHlcells have detectable GLP-1R messenger ribonucleic acid (mRNA) as detected by quantitative polymerase chain reaction (qPCR). […] The EndoC-PH1 cell line is a valid model of human beta cells and applicable for screenings to identify novel drug target candidates (Mol. Metab., 2018, 8, 144-157). CisBio HTRF cAMP kits are based on a competitive immunoassay using cryptate-labelled anti-cAMP antibody and d2-labeled cAMP. The detection kit is intended for the direct is quantitative determination of cAMP. The specific signal (i.e. energy transfer) is inversely proportional to the concentration of cAMP in the standard or sample. Test compounds (10 mM in DMSO) were diluted into assay buffer (HBSS (Sigma #H8264) supplemented with 25 mM HEPES (Gibco #15630, pH 7.4), 0.1% BSA (Sigma #A3059) and 0.5 mM IBMX (Sigma #I7018) included fresh on the day of the assay) into 96 well U-bottom plates (Greiner #650201). Diluted compounds were transferred to ECHO source polypropelene plates (Labcyte #P-05525) and dose response curves were dispensed acoustically using ECHO 550 into black shallow-well u-bottom 384-well HTRF Assay Plates (Corning 4514). Cryovials of EndoC-H1 (supplied at 1×10e^7 cells/vial) were used directly for screening. The cryovials and were removed from N2(1) and thawed rapidly in a 37° C. water bath. The cells were resuspended in assay buffer and centrifuged at 300 g for 5 min. Cells were resuspended in assay buffer at the appropriate concentration, typically at 12e5 cells per mL (3000 cells per well, dependent on cell batch) and 2.5 μL diluted cells were added to all wells of destination plate by Multidrop combi reagent dispenser (Thermofisher). The plates were incubated at rt for 30 min. The assay was stopped by adding 2.5 μL anti-cAMP cryptate solution to all wells and 2.5 μL cAMP-d2 solution (both diluted 1:20 in lysis buffer) to columns 1-22 by Combi drop. A volume of 2.5 μL cAMP-d2 solution was added to wells E23 to P24 and 2.5 μL lysis buffer added to wells A23 to D24 by multichannel pipette. The plates were incubated at rt for 1 h and read on an Envision plate reader using excitation wavelength of 320 nm and emission of […] and 660 nm.
Raw data from Envision is converted to % DeltaF according to the manufacturer's instructions. Dose response curves are analysed via 4-Parameter Logistical Analysis and assay plate Z’ values obtained. Samples are graphed as percentage (%) activation plots compared to […] with assay window defined by negative control as basal cell is cAMP levels and positive control are defined by maximum GIP (82.5 nM) signal. GLP-1 (7-36 amide, Bachem H-6795) dose response curve was included on all plates.

T1 sequence (P43220 24-463 L260F): as the sequence (P43220 24-463) above, with L237F counted along it

| Compound | EC50 (human GLP-1R receptor) | EC50 [1] |
| --- | --- | --- |
| COc1cc2nc(CN3CCN(c4cccc5c4OC(C)(c4ccc(Cl)cn4)O5)[C@H]4CC[C@@H]43)n(C[C@@H]3CCO3)c2cc1C(=O)O (mixture of isomers) [Example 12, 2-(((1RS,6RS)-5-(2-(5-Chloropyridin-2-yl)-2-methylbenzo[d][1,3]dioxol-4-yl)-2,5-diazabicyclo[4.2.0]octan-2-yl)methyl)-5-methoxy-1-(((S)-oxetan-2-yl)methyl)-1H-benzo[d]imidazole-6-carboxylic acid] | 200 nM | 320 nM |
| C[C@]1(c2ccc(Cl)cc2F)Oc2cccc(N3CCN(Cc4nc5c(F)cc(C(=O)O)cc5n4C[C@@H]4CCO4)[C@H]4CC[C@H]43)c2O1 (relative stereo) [Example 9d, 2-((1R*,6S*)-5-(R*)-2-(4-Chloro-2-fluorophenyl)-2-methylbenzo[d][1,3]dioxol-4-yl)-2,5-diazabicyclo[4.2.0]octan-2-yl)methyl)-4-fluoro-1-(((S)-oxetan-2-yl)methyl)-1H-benzo[d]imidazole-6-carboxylic acid] | 2.3 nM | 4.3 nM |
| C[C@]1(c2ccc(Cl)cn2)Oc2cccc(N3CCN(Cc4nc5c(Cl)cc(C(=O)O)cc5n4C[C@@H]4CCO4)[C@H]4CC[C@H]43)c2O1 (relative stereo) [Example 20a, 4-Chloro-2-(((1R*,6S*)-5-((R*)-2-(5-chloropyridin-2-yl)-2-methylbenzo[d1[1,3]dioxol-4-yl)-2,5-diazabicyclo[4.2.0]]octan-2-yl)methyl)-1-(((S)-oxetan-2-yl)methyl)-1H-benzo[d]imidazole-6-carboxylic acid] | 42 nM |  |
| C[C@]1(c2ccc(Cl)cn2)Oc2cccc(N3CCN(Cc4nc5c(Cl)cc(C(=O)O)cc5n4C[C@@H]4CCO4)[C@H]4CC[C@@H]43)c2O1 (single isomer, unassigned) [Example 3a, 4-Chloro-2-(((1R*,6R*)-5-((R*)-2-(5-chloropyridin-2-yl)-2-methylbenzo[d][1,3]dioxol-4-yl)-2,5-diazabicyclo[4.2.0]octan-2-yl)methyl)-1-(((S)-oxetan-2-yl)methyl)-1H-benzo[d]imidazole-6-carboxylic acid] | 220 nM | 4400 nM |
| C[C@]1(c2ccc(Cl)cn2)Oc2cccc(N3CCN(Cc4nc5ccc(C(=O)O)cc5n4C[C@@H]4CCO4)[C@H]4CC[C@H]43)c2O1 (single isomer, unassigned) [Example 5b, 2-((1R*,6S*)-5-(R*)-2-(5-Chloropyridin-2-yl)-2-methylbenzo[d][1,3]dioxol-4-yl)-2,5-diazabicyclo[4.2.0]octan-2-yl)methyl)-1-(((S)-oxetan-2-yl)methyl)-1H-benzo[d]imidazole-6-carboxylic acid] | 18 nM | 120 nM |

Second part, the compound after the results:

| EC50 (human GLP-1R receptor) | EC50 [1] | Compound |
| --- | --- | --- |
| 5.2 nM |  | COc1cc(C(=O)O)cc2c1nc(CN1CCN(c3cccc4c3OC(C)(c3ccc(Cl)cn3)O4)[C@H]3CC[C@@H]31)n2CCOC1CC1(F)F (mixture of isomers) [Example 13, rac-2-(((1R,6R)-5-(2-(5-Chloropyridin-2-yl)-2-methylbenzo[d][1,3]dioxol-4-yl)-2,5-diazabicyclo[4.2.0]octan-2-yl)methyl)-1-(2-(2,2-difluorocyclopropoxy)ethyl)-4-methoxy-1H-benzo[d]imidazole-6-carboxylic acid] |
| 45 nM | 38 nM | CC1(c2ccc(Cl)cn2)Oc2cccc(N3CCN(Cc4nc5c(F)cc(C(=O)O)cc5n4CCOC4CC4(F)F)[C@H]4CC[C@@H]43)c2O1 (mixture of isomers) [Example 14, rac-2-(((1R,6R)-5-(2-(5-Chloropyridin-2-yl)-2-methylbenzo[d][1,3]dioxol-4-yl)-2,5-diazabicyclo[4.2.0]octan-2-yl)methyl)-1-(2-(2,2-difluorocyclopropoxy)ethyl)-4-fluoro-1H-benzo[d]imidazole-6-carboxylic acid] |
| 400 nM | 590 nM | COc1cc(C(=O)O)cc2c1nc(CN1CCN(c3cccc4c3O[C@@](C)(c3ccc(Cl)cn3)O4)[C@@H]3CC[C@@H]31)n2C[C@@H]1CCCO1 (relative stereo) [Example 8b, 2-((1R*,6S*)-5-(R*)-2-(5-Chloropyridin-2-yl)-2-methylbenzo[d][1,3]dioxol-4-yl)-2,5-diazabicyclo[4.2.0]octan-2-yl)methyl)-4-methoxy-1-(((S)-tetrahydrofuran-2-yl)methyl)-1H-benzo[d]imidazole-6-carboxylic acid] |
| 65 nM | 200 nM | COc1cc(C(=O)O)cc2c1nc(CN1CCN(c3cccc4c3O[C@@](C)(c3ccc(Cl)cn3)O4)[C@H]3CC[C@@H]31)n2CCOC1CC1 (relative stereo) [Example 27, rel-2-(((1R,6R)-5-((R)-2-(5-Chloropyridin-2-yl)-2-methylbenzo[d][1,3]dioxol-4-yl)-2,5-diazabicyclo[4.2.0]octan-2-yl)methyl)-1-(2-cyclopropoxvethyl)-4-methoxy-1H-benzo[d]imidazole-6-carboxylic acid] |
| 66 nM | 280 nM | C[C@]1(c2ccc(Cl)cn2)Oc2cccc(N3CCN(Cc4nc5c(F)cc(C(=O)O)cc5n4C[C@@H]4CCO4)[C@H]4CC[C@H]43)c2O1 (single isomer, unassigned) [Example 1a, 2-((1R*,6S*)-5-(R*)-2-(5-Chloropyridin-2-yl)-2-methylbenzo[d][1,3]dioxol-4-yl)-2,5-diazabicyclo[4.2.0]octan-2-yl)methyl)-4-fluoro-1-(((S)-oxetan-2-yl)methyl)-1H-benzo[d]imidazole-6-carboxylic acid] |
| 140 nM |  | C[C@]1(c2ccc(Cl)cn2)Oc2cccc(N3CCN(Cc4nc5c(Cl)cc(C(=O)O)cc5n4C[C@@H]4CCO4)[C@H]4CC[C@H]43)c2O1 (single isomer, unassigned) [Example 20b, 4-Chloro-2-(((1R*,6S*)-5-((R*)-2-(5-chloropyridin-2-yl)-2-methylbenzo[d][1,3]dioxol-4-yl)-2,5-diazabicyclo[4.2.0]octan-2-yl)methyl)-1-(((S)-oxetan-2-yl)methyl)-1H-benzo[d]imidazole-6-carboxylic acid] |
